# According to patent US12612427B2, “Aryl glucoside derivative, preparation method therefor and application thereof” (Shanghai Zheye Biotechnology Co. Ltd., priority 2020, dated 2026):
# pIC50: −log10 of the molar value.
# Experiments:
# [1] = Lipid solubility and water solubility; format: physicochemical; details: compared with the compound of Example 5
# [2] = biological target: T1, human SGLT1 (Homo sapiens, UniProt P13866); experiment: hSGLT1 inhibitor activity experiment 2: 2-NBDG uptake by HEK293 cells stably expressing human SGLT1; format: cell-based; details: for pIC50: 2-NBDG uptake, HEK293 stably expressing human SGLT1, read-out: SGLT1 Inhibitory Activity
# T1 construct: expressed in transfected cells
# T1 sequence (P13866 1-664): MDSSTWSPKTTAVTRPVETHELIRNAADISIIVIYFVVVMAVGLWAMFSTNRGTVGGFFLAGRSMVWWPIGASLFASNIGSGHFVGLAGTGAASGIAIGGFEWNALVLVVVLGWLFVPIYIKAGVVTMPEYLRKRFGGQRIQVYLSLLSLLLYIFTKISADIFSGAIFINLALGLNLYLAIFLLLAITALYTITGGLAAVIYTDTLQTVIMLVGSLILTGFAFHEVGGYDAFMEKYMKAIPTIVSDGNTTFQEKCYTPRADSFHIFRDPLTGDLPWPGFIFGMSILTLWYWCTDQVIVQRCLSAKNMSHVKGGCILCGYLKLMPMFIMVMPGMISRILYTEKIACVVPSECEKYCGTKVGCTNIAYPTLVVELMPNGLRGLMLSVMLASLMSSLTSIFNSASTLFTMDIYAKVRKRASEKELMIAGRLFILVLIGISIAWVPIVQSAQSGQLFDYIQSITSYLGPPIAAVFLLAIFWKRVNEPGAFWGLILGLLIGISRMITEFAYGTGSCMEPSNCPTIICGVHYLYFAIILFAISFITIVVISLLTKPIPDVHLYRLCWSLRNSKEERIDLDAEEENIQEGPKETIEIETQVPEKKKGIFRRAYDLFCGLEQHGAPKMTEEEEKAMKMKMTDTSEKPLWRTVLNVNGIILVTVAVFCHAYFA
# Experimental: Inhibitory activity testing was performed with reference to a similar method described in document [Acta Pharmaceutica Sinica 2017, 52 (6): 897-903; Nature Protocols (2007), 2(3), 753-762; Journal of Biochemical and Biophysical Methods (2005), 64(3), 207-215; Diabetes Technology & Therapeutics (2011), 13(7), 743-775].
# In this experiment, the in vitro activity assay was evaluated using the uptake of 2-NBDG (2-Deoxy-2-[(7-nitro-2,1,3-benzoxadiazol-4-yl)amino]-D-glucose, CAS NO: 186689-07-6) by human embryonic kidney epithelial cells (HEK293, stably expressing human SGLT1), and the SGLT1 inhibitory activity of the target compound was determined by measuring its half-maximal inhibitory concentration (IC50).
# HEK293 cells that can stably express human SGLT1 gene were inoculated into a 96-well clear-bottom black plate containing DMEM medium. The cells were incubated at 37° C., 5% CO2 in a cell incubator. The medium in the 96-well plate was aspirated, and the plate was treated with low-glucose serum-free DMEM medium, and washed once with non-specific uptake buffer and once with Na^+-dependent uptake buffer. Uptake buffer containing test compound was added to each well of cells, followed by uptake buffer containing 2-NBDG for glucose uptake, and the cell plate was incubated at 37° C., 5% CO2. The compounds were gradiently diluted. The uptake reaction was stopped by removing the culture medium, and after washing the cells with ice-cold uptake buffer, the washing solution was removed. The cells were lysed by adding NaOH, and the content of 2-NBDG in the cells was detected by a fluorescence microplate reader. The protein concentration of the lysate was measured by BCA method, the uptake of 2-NBDG was quantified by fluorescence intensity/protein content, and the obtained data were analyzed using GraphPad Prism to determine the median inhibitory concentration (IC50) of the compound to be tested.
# [3] = system: SD rats; experiment: Oral glucose tolerance test (OGTT) after continuous administration in rats for 14 days; format: in vivo, rat; details: for blood sugar level of rats (OGTT): 0.009 mg/kg oral gavage, 14 days, OGTT on day 15; for loose stools in the experimental animals: rats, within 48 hours before and after the experiment
# Experimental: • Experimental animals: SPF male SD rats; • Compound preparation: an appropriate amount of the compounds of Example 1, Example 2, Example 9, Example 10, and Example 17 were weighed, and uniformly suspended with an appropriate amount of 0.5% CMC-Na solution; • Preparation of glucose solution: an appropriate amount of glucose powder was weighed and dissolved with an appropriate amount of pure water; • Dosage and method of administration: 0.009 mg/kg, oral gavage.
# Experimental process: the animals were fed a normal diet with consecutive administration for 14 days, and the glucose tolerance test was performed on day 15, blood glucose was detected before administration (−30 min), before giving glucose (0 min), and 10, 30, 60, and 120 min after giving glucose solution, and the defecation of animals was observed.
# [4] = Pharmacokinetic study in rats; format: in vivo, rat; details: 10 mg/kg, oral gavage, 0-24 hours
# Experimental: 5. Pharmacokinetic Study in Rats • Experimental animals: SPF male SD rats; • Dosage and method of administration: 10 mg/kg, oral gavage. • Research compound: Dapagliflozin, the compound of Example 9, the compound of Example 10, the compound of Example 17, and the comparative compound 6;
# Test method: Before administration (0), and 1, 4, 8, and 24 hours after administration, 0.2 ml of blood was collected from orbital venous plexus, anticoagulated with heparin, plasma was collected, and the blood drug concentration was determined.
smiles,measurement,setting,value
CS[C@H]1O[C@@H](c2ccc(C)c(Cc3ccc(CCCC(=O)NC(C)(C)C(=O)NCCN(C)CC(=O)N(C)Cc4cn(C5CC5)nn4)cc3)c2)[C@H](O)[C@@H](O)[C@@H]1O,lipid solubility,[1],better
same,water solubility,[1],better
CS[C@H]1O[C@@H](c2ccc(C)c(Cc3ccc(CCCC(=O)NC(C)(C)C(=O)NCCN(C)CC(=O)N4CCCC4)cc3)c2)[C@H](O)[C@@H](O)[C@@H]1O [Example 1],activity of inhibiting SGLT1 (in words),[2],significant activity of inhibiting SGLT1
same,pIC50,[2],9.11
same,blood sugar level of rats (OGTT),[3],significantly reduce the blood sugar level
same,loose stools in the experimental animals,[3],no loose stools were observed
CS[C@H]1O[C@@H](c2ccc(C)c(Cc3ccc(CCCC(=O)NC(C)(C)C(=O)NCCN(C)CC(=O)N(C)C)cc3)c2)[C@H](O)[C@@H](O)[C@@H]1O [Example 2],activity of inhibiting SGLT1 (in words),[2],significant activity of inhibiting SGLT1
same,pIC50,[2],8.95
same,blood sugar level of rats (OGTT),[3],significantly reduce the blood sugar level
same,loose stools in the experimental animals,[3],no loose stools were observed
CS[C@H]1O[C@@H](c2ccc(C)c(Cc3ccc(CCCC(=O)NC(C)(C)C(=O)NCCN(C)CC(=O)N4CCN(C)CC4)cc3)c2)[C@H](O)[C@@H](O)[C@@H]1O [Example 3],activity of inhibiting SGLT1 (in words),[2],significant activity of inhibiting SGLT1
same,pIC50,[2],9.03
CS[C@H]1O[C@@H](c2ccc(C)c(Cc3ccc(CCCC(=O)NC(C)(C)C(=O)N4CCN(CC(=O)N5CCCC5)CC4)cc3)c2)[C@H](O)[C@@H](O)[C@@H]1O [Example 4],activity of inhibiting SGLT1 (in words),[2],significant activity of inhibiting SGLT1
same,pIC50,[2],9.06
C#CCN(CCNC(=O)C(C)(C)NC(=O)CCCc1ccc(Cc2cc([C@@H]3O[C@H](SC)[C@@H](O)[C@H](O)[C@H]3O)ccc2C)cc1)CC(=O)N1CCCC1 [Example 9],drug concentration in plasma,[4],did not reach the detection limit
same,activity of inhibiting SGLT1 (in words),[2],significant activity of inhibiting SGLT1
same,pIC50,[2],9.28
same,blood sugar level of rats (OGTT),[3],significantly reduce the blood sugar level
same,loose stools in the experimental animals,[3],no loose stools were observed
C#CCN(C)C(=O)CN1CCN(C(=O)C(C)(C)NC(=O)CCCc2ccc(Cc3cc([C@@H]4O[C@H](SC)[C@@H](O)[C@H](O)[C@H]4O)ccc3C)cc2)CC1 [Example 17],drug concentration in plasma,[4],did not reach the detection limit
same,activity of inhibiting SGLT1 (in words),[2],significant activity of inhibiting SGLT1
same,pIC50,[2],9.31
same,blood sugar level of rats (OGTT),[3],significantly reduce the blood sugar level
same,loose stools in the experimental animals,[3],no loose stools were observed
